Reference: patent US20230233533A1, “COMPOSITIONS, METHODS OF TREATING AND PREVENTING FUNGAL INFECTIONS, AND METHODS OF INHIBITING PRP8 INTEIN EXPRESSION” (Health Research, Inc., priority 2020, published 2023)
Values after ≈ are worked out from the molar mass of the structure shown.

How the values were obtained:
[1] = target: Prp8 intein (Cryptococcus gattii, UniProt E6R027); assay: MIG-Prp8 in-gel splicing assay; assay type: biochemical; details: E. coli lysate, TCEP-triggered
Description: The MIG-Prp8 and Prp8-GFP in-gel splicing assays—The MIG Prp8 and Prp8-GFP splicing assays were carried out as described. […] The samples were analyzed in SDS-PAGE without boiling. The gels were quantified using GFP fluorescence and Coomassie blue staining with the Bio-Rad Gel Doc EZ.
This reporter system, MIG-Prp8, comprising a fusion protein of the Prp8 intein flanked by maltose binding protein (MBP) and green fluorescent protein (GFP), allowed observation of functional Prp8 intein splicing in Escherichia coli lysate. […] C-terminal cleavage product (CC; GFP) could also be visualized.

[2] = tested on: trypsin; assay: Trypsin protease inhibition (Abz FRET substrate); assay type: biochemical; details: compound at 400 μM
Description: Trypsin and papain protease inhibition—An Abz FRET substrate (Abz-RRRRSAG-nTyr) developed previously (Li et al., “Existing Drugs as Broad-Spectrum and Potent Inhibitors for Zika Virus by Targeting NS2B-NS3 Interaction,” Cell Research 27(8):1046-1064 (2017), which is hereby incorporated by reference in its entirety) was used as the substrate for inhibition of trypsin and papain proteases. In black and clear-bottom 96-well plates, 1 μg trypsin (Sigma-Aldrich) was incubated with DMF or compounds at 400 μM at 25° C. for 30 min in a 70 μl reaction buffer containing 20 mM Tris, pH 8.0, 100 mM NaCl, 5% Glycerol, and 0.05% CHAPS. For papain, 1 μg Papain (Sigma-Aldrich) was incubated with compounds at 400 μM at 25° C. for 30 min in a 70 μl reaction buffer composed of 1.1 mM EDTA, 0.067 mM β-mercaptoethanol, 5.5 mM cysteine. […]

[3] = tested on: Candida albicans; assay: Fungal susceptibility test, broth microdilution MIC; assay type: cell-based; details: microdilution assay
Description: Fungal susceptibility test—The fungal susceptibility test was carried out with a compound concentration series as described. Li et al., “Cisplatin Protects Mice From Challenge of Cryptococcus neoformans by Targeting the Prp8 Intein,” Emerging Microbes & Infections 8(1):895-908 (2019), which is hereby incorporated by reference in its entirety. The broth microdilution method was used to determine the compound MIC values against C. neoformans. In brief, serial 2-fold dilutions of the 6G-318SS (20 to 0.03 μg/ml) were made in 100 μl RPMI-1640 medium with MOPS in 96-well U-bottom plates. The C. neoformans H99 strain (100 μl of 0.5×10^5/ml) in log phase was added to each well. […] The MIC break-point was defined as no visible fungal growth by naked eye or by determining the 90% growth inhibition using absorbance at 630 nm, compared with no inhibitor control in a 96-well plate.
C. albicans, a fungus without the Prp8 intein, was also used as a control.

[4] = tested on: C. neoformans H99; assay: Checkerboard assay; assay type: cell-based, Cryptococcus neoformans
Description: Compounds were initially dissolved in DMSO and diluted in RPMI-1640-MOPS media four times the targeted final concentration and 50 μl was added per well. The second compound was similarly diluted and 50 μl was added per well, to a final volume of 100 μl/well. C. neoformans […] inoculum (100 μl) prepared from freshly grown cultures and diluted to an absorbance of 0.1 at 530 nm in water and further diluted (1:500) in RPMI-1640-MOPS was added to each well. To determine the fungicidal concentration of a compound, the wells with no visible growth were serially diluted, plated on SDA, and incubated at 30° C. for 48-72 h for the recovery of colony-forming units. Additionally, the cell density of treated and untreated wells was also estimated by reading absorbance at 630 nm using an EL808 reader (Bio-Tek). Percentage of inhibition compared to that of the no-drug-control well was calculated. […] Fractional inhibitory concentration (FIC) index value is calculated as the […]. The FIC index value is then used to categorize the interaction of the two compounds tested. […] Doern, C., “When Does 2 plus 2 Equal 5?A Review of Antimicrobial Synergy Testing,” Journal of Clinical Microbiology 52(12):4124-4128 (2014), which is hereby incorporated by reference in its entirety.

[5] = target: C1A/H62A/D95A/H169A (AAAA) Prp8 intein mutant; assay: Surface plasmon resonance (SPR), AAAA mutant; assay type: binding, Cryptococcus gattii
Description: The Prp8 intein and mutants were immobilized onto a ProteOn™ GLH sensor chip (2,500-7,000 RU) (Bio-Rad). A 3-fold dilution series of compounds was injected as the analytes. A blank surface blocked by ethanolamine was used as the control surface. The experiment was carried out at a flow rate of 100 μl/min using a PBSTD buffer containing 1×PBS, 0.005% surfactant P20, and 5% DMSO. Association (ka) and dissociation (kd) rates, as well as the dissociation constant (KD), were obtained by global fitting of the SPR data from multiple concentrations to a simple 1:1 Langmuir binding model, using the ProteOn Manager software suite (Bio-Rad).

[6] = tested on: Prp8 intein; assay: Western blot of Prp8 intein splicing in C. neoformans H99; assay type: cell-based; details: 0.32 μg/ml, 3 h post-treatment
Description: Western blot (WB)—Fresh colonies of Cryptococcus neoformans were grown in yeast extract peptone dextrose (YPD) broth in an environmental shaker (250 rpm) overnight at 30° C. The fungal cells (5 ml) were diluted in 125 ml YPD broth and grown for 1.5 h to a final cell density of 0.2 at OD530. The cells were distributed to test tubes (3 ml/tube). Then 3 ml of YPD medium containing DMF or 2-fold diluted compounds was added to the cells. The mixtures were incubated at 30° C. in a shaker at 250 RPM for up to 18 h. Samples were spun down and pellets were frozen for WB analysis.
Cryptococcal cells treated with DMF or compounds were washed twice with PBS buffer. Cells were spun down and supernatant was removed. For a 6-ml cell pellet, 30 μl of complete protease inhibitor cocktail in PBS was added to the cells, followed by addition of 400 μl lysis buffer (50 mM Tris, pH 8.0, 500 mM NaCl, 10% glycerol) and 500 μl glass beads. The fungal cells were lysed by rigorous beating for 2 min 3 times. The cell lysate was spun down. Supernatant was mixed with SDS-PAGE loading buffer (1:1). The mixtures were boiled at 95° C. for 10 min, followed by centrifugation at 15,000 rpm for 10 min. Samples were analyzed using 12% SDS-PAGE. The separated samples were blotted to a PVDF membrane and subjected to WB analysis using an antibody against the Prp8 intein. […]

[7] = tested on: C. neoformans (H99); assay: In vivo preliminary efficacy study, intranasal infection of BALB/c mice; design: species or system Cryptococcus neoformans; details: 75 mg/kg oral gavage once daily
Description: FIG. 7 illustrates efficacy of 6G318S in mouse models. BALB/c mice (5-6 wk old, male and female were dosed orally by either vehicle control (VC) or 6G318S-75 mg/kg once daily for 5 days. On day 5, all mice were euthanized, lungs were collected, weighed and homogenized in RPMI-1640-MOPS media. Serial 10-fold dilution of the homogenate is made and a volume of 100 ul is plated on to Sabouraud Dextrose-agar plates with antibiotics. Colonies were counted on day 3 and normalized to weight of the lung.
Treatment was given for 6 days. On day 6 few mice were euthanized to check the […] in lungs.

Chain of Prp8 intein (Cryptococcus gattii, UniProt E6R027) (E6R027 entry or part of it): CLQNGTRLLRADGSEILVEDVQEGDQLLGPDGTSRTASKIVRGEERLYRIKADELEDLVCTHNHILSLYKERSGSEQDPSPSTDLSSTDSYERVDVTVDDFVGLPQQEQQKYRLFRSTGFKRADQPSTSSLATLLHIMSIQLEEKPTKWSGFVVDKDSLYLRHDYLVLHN

O=C(Nc1ccc(F)cc1)c1nnsc1S(=O)(=O)c1ccc(Cl)cc1 [6G-318S, 5-[(4-chlorophenyl)sulfonyl]-N-(4-fluorophenyl)-1,2,3-thiadiazole-4-carboxamide]
inhibition of MIG-Prp8 splicing [1]: accumulation of the MIG-Prp8 precursor PP and decrease of LE product in a dose-dependent manner | inhibition of trypsin protease activity [2]: neither 6G-318S, 6G-319S, nor cisplatin significantly inhibited | MIC [3]: 5 µg/mL (≈ 12.6 µM) | MIC ([4]; Cryptococcus neoformans, H99, 48 h): 1 µg/mL | Effect ([4]; combination 6G-318S + 5-FC): Additive (>0.5 to 1 is additive) | MIC-comb ([4]; combination 6G-318S + 5-FC, well D6): 0.500 µg/mL | Effect ([4]; combination 6G-318S + AmB): Synergistic (FIC index value of ≤0.5 is considered as synergy) | MIC-comb ([4]; combination 6G-318S + AmB, well F6): 0.125 µg/mL | Effect ([4]; combination 6G-318S + IZ): Additive (>0.5 to 1 is additive) | MIC-comb ([4]; combination 6G-318S + IZ, well D6): 0.500 µg/mL | Effect ([4]; combination 6G-318S + Vor): Indifferent (>1 to 4 is indifferent) | MIC-comb ([4]; combination 6G-318S + Vor, well G3): 0.063 µg/mL | KD AAAA [5]: completely lost binding affinity | inhibition of Prp8 splicing in vivo in C. neoformans [6]: completely inhibited Prp8 splicing | fungal cells in lungs versus vehicle controls [7]: indication of reduction of fungal cells in lungs
